From US20040049086A1, “Diphenol and process for producing the same” (priority 2001, published 2004) come the findings set out here.

`Cc1cc(C2CCC(c3ccc(O)cc3)CC2)ccc1O` (stereo not drawn) [Example 1 of Example B, 4-(4′-(4″-hydroxyphenyl)cyclohexyl)-2-methyl-1-hydroxybenzene] came in with a melting point of 159 °C.
`Cc1cc(-c2ccc(-c3ccc(O)cc3)cc2)ccc1O` [Example 1 of Example C, 4-hydroxy-3″-methyl-4″-hydroxy-p-terphenyl] yielded a melting point of 251.4 °C.
To `Cc1cc(C2=CCC(c3ccc(O)cc3)CC2)ccc1O` (stereo not drawn) [Example 2 of Example A, 1-(3-methyl-4-hydroxyphenyl)-4-(4-hydroxyphenyl)-1-cyclohexene] belongs 201 °C; to `Cc1cc(-c2ccc(-c3ccc(O)cc3)cc2)cc(C)c1O` [Example 2 of Example C, 4-hydroxy-3″,5″-dimethyl-4″-hydroxy-p-terphenyl], 231 °C; to `CC(C)(C)c1cc(C2=CCC(c3ccc(O)cc3)CC2)ccc1O` (stereo not drawn) [Example 4 of Example A, 1-(3-t-butyl-4-hydroxyphenyl)-4-(4-hydroxyphenyl)-1-cyclohexene], 188 °C.
Turning to `Cc1cc(C2=CCC(c3ccc(O)cc3)CC2)cc(C)c1O` (stereo not drawn) [Example 5 of Example A, 1-(3,5-dimethyl-4-hydroxyphenyl)-4-(4-hydroxyphenyl)-1-cyclohexene], the melting point amounted to 224 °C.

Usually melting point stands for the temperature of the solid-liquid transition.
